Source: patent US12077503B2, “Substituted cyclic amides and their use as herbicides” (FMC CORPORATION, priority 2015, dated 2024)

Tests used:
Format in all cases: in vivo
[1] = system: barnyardgrass (Echinochloa crus-galli); assay: Test C flooded paddy test; conditions: Flood, 0 is no effect, 100 is complete control
Method in brief: (§1)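 Compound was added directly to paddy water held 3 cm above the soil, with plants at the 2-leaf stage. Injury was scored visually versus untreated controls after 13–15 d greenhouse growth, using a 0–100 scale where 100 means complete control.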

[2] = system: ducksalad (Heteranthera limosa); assay: Test C flooded paddy test; conditions: Flood, 0 is no effect, 100 is complete control
Method in brief: as §1

rice (Oryza sativa) = assay: Test C flooded paddy test; conditions: Flood, 0 is no effect, 100 is complete control
Method in brief: as §1

[3] = system: sedge, umbrella (small-flower umbrella sedge, Cyperus difformis); assay: Test C flooded paddy test; conditions: Flood, 0 is no effect, 100 is complete control
Method in brief: as §1

Kochia (Kochia scoparia) = assay: Test D preemergence; conditions: scale 0 to 100
Method in brief: (§2)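 Seeds of the weed and crop species were sown in silt loam soil and treated preemergence with compounds formulated in a non-phytotoxic solvent mixture containing surfactant. After about 21 d in a controlled growth environment, plants were visually rated against untreated controls on a 0–100 scale (0 = no effect, 100 = complete control).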

[4] = system: Russian thistle (Salsola kali); assay: Test D preemergence; conditions: scale 0 to 100
Method in brief: as §2

[5] = system: oat, wild (wild oat, Avena fatua); assay: Test D preemergence; conditions: scale 0 to 100
Method in brief: as §2

[6] = system: wheat, spring (spring wheat, Triticum aestivum); assay: Test D preemergence; conditions: scale 0 to 100
Method in brief: as §2

[7] = system: windgrass (Apera spica-venti); assay: Test D preemergence; conditions: scale 0 to 100
Method in brief: as §2

[8] = system: horseweed (Conyza canadensis); assay: Test E preemergence; conditions: scale 0 to 100
Method in brief: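 Seeds sown in silt loam treated preemergence, or plants 2 to 18 cm tall in peat-based potting medium treated postemergence, with test chemical in a non-phytotoxic solvent mixture containing surfactant. Kept in greenhouse 14 to 21 d, then visually rated against controls on a 0–100 scale (0 no effect, 100 complete control).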

SMILES: CN1C[C@H](c2ccc(F)c(F)c2)[C@@H](C(=O)Nc2ccccc2F)C1=O [Compound 596, (3S,4S)-4-(3,4-difluorophenyl)-N-(2-fluorophenyl)-1-methyl-2-oxo-3-pyrrolidinecarboxamide]
- Plant response rating (scale of 0 to 100), Barnyardgrass ([1]; 31 g ai/ha): 0
- Plant response rating (scale of 0 to 100), Barnyardgrass ([1]; 62 g ai/ha): 60
- Plant response rating (scale of 0 to 100), Barnyardgrass ([1]; 125 g ai/ha): 75
- Plant response rating (scale of 0 to 100), Barnyardgrass ([1]; 250 g ai/ha): 85
- Plant response rating (scale of 0 to 100), Ducksalad ([2]; 31 g ai/ha): 30
- Plant response rating (scale of 0 to 100), Ducksalad ([2]; 62 g ai/ha): 60
- Plant response rating (scale of 0 to 100), Ducksalad ([2]; 125 g ai/ha): 90
- Plant response rating (scale of 0 to 100), Ducksalad ([2]; 250 g ai/ha): 100
- Plant response rating (scale of 0 to 100), Rice (rice (Oryza sativa); 31 g ai/ha): 0
- Plant response rating (scale of 0 to 100), Rice (rice (Oryza sativa); 62 g ai/ha): 0
- Plant response rating (scale of 0 to 100), Rice (rice (Oryza sativa); 125 g ai/ha): 10
- Plant response rating (scale of 0 to 100), Rice (rice (Oryza sativa); 250 g ai/ha): 10
- Plant response rating (scale of 0 to 100), Sedge, Umbrella ([3]; 31 g ai/ha): 0
- Plant response rating (scale of 0 to 100), Sedge, Umbrella ([3]; 62 g ai/ha): 0
- Plant response rating (scale of 0 to 100), Sedge, Umbrella ([3]; 125 g ai/ha): 0
- Plant response rating (scale of 0 to 100), Sedge, Umbrella ([3]; 250 g ai/ha): 0

SMILES: CN1C[C@H](c2ccc(C(F)(F)F)cc2)[C@@H](C(=O)Nc2cccc(F)c2F)C1=O [Compound 623, (3S,4S)—N-(2,3-difluorophenyl)-1-methyl-2-oxo-4-[4-(trifluoromethyl)phenyl]-3-pyrrolidinecarboxamide]
- Plant response rating: Kochia (Kochia (Kochia scoparia); 31 g ai/ha): 25
- Plant response rating: Kochia (Kochia (Kochia scoparia); 62 g ai/ha): 75
- Plant response rating: Kochia (Kochia (Kochia scoparia); 125 g ai/ha): 95
- Plant response rating: Kochia (Kochia (Kochia scoparia); 250 g ai/ha): 95
- Plant response rating: Russian Thistle ([4]; 31 g ai/ha): 15
- Plant response rating: Russian Thistle ([4]; 62 g ai/ha): 25
- Plant response rating: Russian Thistle ([4]; 125 g ai/ha): 60
- Plant response rating: Russian Thistle ([4]; 250 g ai/ha): 70
- Plant response rating: Oat, Wild ([5]; 31 g ai/ha): 25
- Plant response rating: Oat, Wild ([5]; 62 g ai/ha): 30
- Plant response rating: Oat, Wild ([5]; 125 g ai/ha): 55
- Plant response rating: Oat, Wild ([5]; 250 g ai/ha): 60
- Plant response rating: Wheat, Spring ([6]; 31 g ai/ha): 5
- Plant response rating: Wheat, Spring ([6]; 62 g ai/ha): 10
- Plant response rating: Wheat, Spring ([6]; 125 g ai/ha): 20
- Plant response rating: Wheat, Spring ([6]; 250 g ai/ha): 45
- Plant response rating: Windgrass ([7]; 31 g ai/ha): 85
- Plant response rating: Windgrass ([7]; 62 g ai/ha): 90
- Plant response rating: Windgrass ([7]; 125 g ai/ha): 95
- Plant response rating: Windgrass ([7]; 250 g ai/ha): 95
- Plant response rating: Horseweed ([8]; 31 g ai/ha): 80
- Plant response rating: Horseweed ([8]; 62 g ai/ha): 90
- Plant response rating: Horseweed ([8]; 125 g ai/ha): 90
- Plant response rating: Horseweed ([8]; 250 g ai/ha): 90
